Structures are written as SMILES.

Series [1] deals with T1, ATP-dependent translocase ABCB1 (Homo sapiens, UniProt P08183). Description: TP_TRANSPORTER: increase in Doxorubicin intracellular accumulation (Doxorubicin: […]) in K562/R10 cells. The class given is functional, cell-based.
The target of series [2] is T1, ATP-dependent translocase ABCB1. As to the kind of experiment: TP_TRANSPORTER: drug resistance (vinblastine) in K562/R10 cells. The class given is functional, cell-based.

T1 sequence (P08183 whole entry): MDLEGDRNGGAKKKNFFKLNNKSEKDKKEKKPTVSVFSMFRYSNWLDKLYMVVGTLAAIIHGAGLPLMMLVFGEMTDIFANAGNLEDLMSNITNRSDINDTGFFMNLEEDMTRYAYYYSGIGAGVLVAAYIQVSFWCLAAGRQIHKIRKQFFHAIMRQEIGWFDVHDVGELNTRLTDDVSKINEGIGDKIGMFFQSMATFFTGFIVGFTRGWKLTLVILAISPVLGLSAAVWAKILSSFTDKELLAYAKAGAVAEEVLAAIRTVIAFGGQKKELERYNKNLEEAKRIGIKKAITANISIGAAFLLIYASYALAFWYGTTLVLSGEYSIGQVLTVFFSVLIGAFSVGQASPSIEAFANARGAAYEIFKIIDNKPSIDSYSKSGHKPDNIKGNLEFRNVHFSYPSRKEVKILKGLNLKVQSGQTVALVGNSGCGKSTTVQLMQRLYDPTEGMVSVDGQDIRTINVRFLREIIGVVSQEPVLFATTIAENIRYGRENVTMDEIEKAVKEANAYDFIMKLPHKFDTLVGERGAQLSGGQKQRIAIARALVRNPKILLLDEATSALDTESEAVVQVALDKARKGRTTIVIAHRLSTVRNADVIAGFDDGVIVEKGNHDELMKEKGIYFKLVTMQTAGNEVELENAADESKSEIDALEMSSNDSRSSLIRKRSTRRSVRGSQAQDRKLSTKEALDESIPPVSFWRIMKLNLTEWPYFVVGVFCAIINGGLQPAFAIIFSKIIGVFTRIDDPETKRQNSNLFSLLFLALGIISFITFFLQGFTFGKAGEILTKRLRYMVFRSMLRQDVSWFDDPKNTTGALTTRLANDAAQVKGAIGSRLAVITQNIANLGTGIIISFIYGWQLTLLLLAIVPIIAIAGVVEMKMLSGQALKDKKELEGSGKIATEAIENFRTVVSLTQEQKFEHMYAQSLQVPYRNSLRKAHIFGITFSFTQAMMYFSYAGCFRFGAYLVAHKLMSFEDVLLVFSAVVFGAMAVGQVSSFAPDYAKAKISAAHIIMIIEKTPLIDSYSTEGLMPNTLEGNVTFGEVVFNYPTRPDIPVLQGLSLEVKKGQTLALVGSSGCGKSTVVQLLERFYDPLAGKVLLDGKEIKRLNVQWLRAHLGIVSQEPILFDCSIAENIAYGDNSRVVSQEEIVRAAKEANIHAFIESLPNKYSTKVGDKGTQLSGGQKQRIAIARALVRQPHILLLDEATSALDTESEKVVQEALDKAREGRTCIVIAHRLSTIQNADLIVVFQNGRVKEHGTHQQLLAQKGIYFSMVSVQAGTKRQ

Regarding `C=CCSCC=C` [DIALLYL SULFIDE], the Activity entry in series [1] and in series [2] was “inhibitor [+]” in each case.

The values above are taken from ChEMBL document CHEMBL2074024, “Reversal of P-glycoprotein-mediated multidrug resistance by diallyl sulfide in K562 leukemic cells and in mouse liver” (Carcinogenesis, 2004).
